# Experimental data published in ChEMBL document CHEMBL1158575, “Glutarimide alkaloids and a terpenoid benzoquinone from Cordia globifera” (J Nat Prod, 2010).
# Activity calls are given as the source filed them. The calls are words filed in the database; no cut-off is given here.
# Key:
# HepG2 = assay: Cytotoxicity against human HepG2 cells MTT assay; format: functional, cell-based
# MOLT-3 = assay: Cytotoxicity against human MOLT3 cells XTT assay; format: functional, cell-based
# A549 = assay: Cytotoxicity against human A549 cells MTT assay; format: functional, cell-based
# HuCC-A1 = assay: (§1) Cytotoxicity against human HuCCa1 cells MTT assay; format: functional, cell-based
# RAW264.7 = assay: Inhibition of superoxide anion radical formation in mouse RAW264.7 cells by xanthine/xanthine oxidase assay; format: functional, cell-based
# HL-60 = assay: Suppression of TPA-induced superoxide anion generation in differentiated human HL60 cells at 100 uM; format: functional
# [1] = as §1; format: functional, cell-based; conditions: HuCC-A1
SMILES,Activity (HepG2),IC50 (MOLT-3) [µM],Activity (A549),Activity (HuCC-A1),IC50 (RAW264.7) [µM],Activity (HL-60) [%],IC50 (HepG2) [µM],IC50 (A549) [µM],IC50 [1] [µM]
CC(=O)N[C@H]1CCC(=O)N(CC(=O)c2ccccc2)C1=O [CORDIARIMIDE A],inactive,145,inactive,inactive,54.1,–,–,–,–
CC(=O)N[C@H]1CCC(=O)N(C[C@H](O)c2ccccc2)C1=O [CORDIARIMIDE B],inactive,44.5,inactive,inactive,21.7,54,–,–,–
C[C@@]12CC3=C(C[C@H]1[C@]1(C)C[C@@H]1C2)C(=O)C=CC3=O [GLOBIFERANE],–,3.7,–,–,–,–,149,149,66
